Data: patent US20260109689A1, “NOVEL COMPOUNDS” (Hoffmann-La Roche Inc., priority 2023, published 2026)

What was measured:
[1] = biological target: T1, human P-gp (Homo sapiens, UniProt P08183); experiment: Transcellular P-gp assay (human P-gp); assay type: in vitro ADME; conditions: LLC-PK1, second value of cell, transfected LLC-PK cells; for efflux ratio: read-out: Apical Efflux Ratio; for Papp: read-out: Permeability
T1 construct: expressed in transfected cells; host or cells: LLC-PKT (so in the source) porcine kidney epithelial cells
Description: (§1) The general assay uses transfected LLC-PKT cells (porcine kidney epithelial cells) over-expressing human or mouse P-gp, cultured on 96 well semi-permeable filter membrane plates, where they form a polarized monolayer with tight junctions, and act as a barrier between the apical and basolateral compartment.
(§2) P-gp is expressed in the apical-facing membrane of the monolayer.
(§3) The tightness of the cell monolayer and functional activity of P-gp are confirmed by addition of a cell-impermeable marker, Lucifer yellow, and a reference P-gp substrate, edoxaban, respectively.

[2] = biological target: T2, hERG cardiac potassium channel (Homo sapiens, UniProt Q12809); experiment: hERG screening assay (automated patch clamp); assay type: cell-based; conditions: CHO crelox hERG cells, whole-cell patch clamp, 35-37° C.
T2 construct: Evotec (cryopreserved cells) ATCC PTA-6812; host or cells: CHO crelox hERG cell line (Chinese hamster)
Description: In the drug development process of small molecules, one of the most frequent adverse side effects, leading to the failure of drugs, is the cardiac arrhythmias. Such failure is often related to the capacity of the drug to inhibit the human ether-a-go-go-related gene (hERG) cardiac potassium channel. Having no or low inhibition of the hERG cardiac potassium channel is therefore considered as beneficial.
The CHO crelox hERG cell line (ATCC reference Nr. PTA-6812, female Chinese hamster cells) was generated and validated at Roche. Ready-to-use frozen instant CHO-hERG cells were cryopreserved at Evotec (Germany) and used directly in the experiments.
The extracellular solution contains (in mM): NaCl 150; KCl 4; CaCl2 1; MgCl2 1; HEPES 10; pH 7.2-7.4 with NaOH, osmolarity 290-330 mOsm. […]
The effects of a compound on hERG K+-currents parameters will be evaluated at 2 concentrations in at least 4 cells.
The hERG test is performed using automated patch clamp system SynchroPatch® 384 (Nanion Technologies GmbH, Germany). K+ currents are measured with the patch-voltage-clamp technique in the whole-cell configuration at 35-37° C. […]
The amplitudes of IKhERG were recorded in each concentration of drug and they were compared to the vehicle control values (taken as 100%) to define fractional blocks. […]

[3] = test system: mouse P-gp; experiment: Transcellular P-gp assay (mouse P-gp); assay type: in vitro ADME; conditions: LLC-PK1, first value of cell, transfected LLC-PK cells; for efflux ratio: read-out: Apical Efflux Ratio; for Papp: read-out: Permeability
Description: as §1, §2, §3

T1 sequence (P08183 whole entry): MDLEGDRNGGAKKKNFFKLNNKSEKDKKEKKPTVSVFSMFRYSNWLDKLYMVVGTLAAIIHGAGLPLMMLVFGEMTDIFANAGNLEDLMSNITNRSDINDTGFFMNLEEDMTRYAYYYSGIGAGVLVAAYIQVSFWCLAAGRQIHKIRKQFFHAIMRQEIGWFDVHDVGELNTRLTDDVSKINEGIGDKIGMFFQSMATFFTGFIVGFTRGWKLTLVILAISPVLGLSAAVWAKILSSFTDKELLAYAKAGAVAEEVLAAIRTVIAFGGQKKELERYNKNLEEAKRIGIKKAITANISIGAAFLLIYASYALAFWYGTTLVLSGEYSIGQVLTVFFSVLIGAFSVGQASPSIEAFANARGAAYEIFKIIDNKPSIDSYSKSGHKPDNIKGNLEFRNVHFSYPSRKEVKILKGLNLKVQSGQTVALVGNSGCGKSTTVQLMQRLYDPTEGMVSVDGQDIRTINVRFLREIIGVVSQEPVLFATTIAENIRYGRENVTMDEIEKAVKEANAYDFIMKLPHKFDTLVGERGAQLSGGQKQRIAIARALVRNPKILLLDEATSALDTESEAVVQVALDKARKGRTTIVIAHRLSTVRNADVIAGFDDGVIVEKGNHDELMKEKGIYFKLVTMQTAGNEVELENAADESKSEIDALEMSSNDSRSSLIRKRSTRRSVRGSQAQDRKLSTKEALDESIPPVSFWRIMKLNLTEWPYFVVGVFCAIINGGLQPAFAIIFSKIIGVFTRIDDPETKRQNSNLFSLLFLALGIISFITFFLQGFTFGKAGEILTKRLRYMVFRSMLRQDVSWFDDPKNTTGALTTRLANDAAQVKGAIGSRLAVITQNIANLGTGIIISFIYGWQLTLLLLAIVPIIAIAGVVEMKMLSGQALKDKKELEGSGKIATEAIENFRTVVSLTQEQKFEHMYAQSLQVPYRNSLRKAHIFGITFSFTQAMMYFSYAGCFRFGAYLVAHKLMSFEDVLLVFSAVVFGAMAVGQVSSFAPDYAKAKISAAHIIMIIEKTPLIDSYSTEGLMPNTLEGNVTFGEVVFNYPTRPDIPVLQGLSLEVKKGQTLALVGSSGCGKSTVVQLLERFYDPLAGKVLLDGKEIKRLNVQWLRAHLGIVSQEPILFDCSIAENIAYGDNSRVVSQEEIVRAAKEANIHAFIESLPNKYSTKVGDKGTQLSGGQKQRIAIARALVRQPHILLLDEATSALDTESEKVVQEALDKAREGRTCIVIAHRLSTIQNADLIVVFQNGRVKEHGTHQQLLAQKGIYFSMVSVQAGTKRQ
T2 sequence (Q12809 whole entry): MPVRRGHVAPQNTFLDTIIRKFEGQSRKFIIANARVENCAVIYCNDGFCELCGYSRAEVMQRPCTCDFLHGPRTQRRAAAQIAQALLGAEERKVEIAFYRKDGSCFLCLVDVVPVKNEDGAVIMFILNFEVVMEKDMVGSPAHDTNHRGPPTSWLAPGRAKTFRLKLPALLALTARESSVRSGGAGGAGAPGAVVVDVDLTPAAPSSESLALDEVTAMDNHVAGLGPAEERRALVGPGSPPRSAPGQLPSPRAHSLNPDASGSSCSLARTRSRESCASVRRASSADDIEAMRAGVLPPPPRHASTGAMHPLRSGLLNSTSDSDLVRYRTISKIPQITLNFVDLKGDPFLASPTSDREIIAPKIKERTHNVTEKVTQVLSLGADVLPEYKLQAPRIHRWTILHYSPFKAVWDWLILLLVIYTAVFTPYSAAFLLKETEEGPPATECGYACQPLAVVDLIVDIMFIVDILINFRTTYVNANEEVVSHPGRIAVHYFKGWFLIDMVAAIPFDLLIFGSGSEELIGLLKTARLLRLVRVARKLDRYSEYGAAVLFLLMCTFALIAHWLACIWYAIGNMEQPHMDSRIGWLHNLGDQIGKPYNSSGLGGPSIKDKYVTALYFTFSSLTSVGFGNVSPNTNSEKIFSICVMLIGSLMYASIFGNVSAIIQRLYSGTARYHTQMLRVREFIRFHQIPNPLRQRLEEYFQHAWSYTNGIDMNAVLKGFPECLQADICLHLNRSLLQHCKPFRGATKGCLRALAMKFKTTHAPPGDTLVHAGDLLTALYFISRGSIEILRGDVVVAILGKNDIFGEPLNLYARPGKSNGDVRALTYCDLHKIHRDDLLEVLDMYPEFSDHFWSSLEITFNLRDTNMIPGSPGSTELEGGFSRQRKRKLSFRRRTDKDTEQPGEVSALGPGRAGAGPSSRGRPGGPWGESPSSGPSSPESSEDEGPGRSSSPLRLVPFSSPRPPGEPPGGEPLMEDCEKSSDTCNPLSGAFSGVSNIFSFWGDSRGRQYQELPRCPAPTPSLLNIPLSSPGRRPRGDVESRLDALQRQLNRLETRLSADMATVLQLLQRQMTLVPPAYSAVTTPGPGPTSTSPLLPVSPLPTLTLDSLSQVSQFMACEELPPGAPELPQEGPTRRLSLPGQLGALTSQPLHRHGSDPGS

Compound | efflux ratio [1] | Papp [1] [×10⁻⁶ cm/s] | IC20 [2] [µM] | efflux ratio [3] | Papp [3] [×10⁻⁶ cm/s]
Cn1c(-c2ccc3c(c2O)CCO3)nnc(N[C@@H]2CCCN(CCO)C2)c1=O [Example 1, 3-(4-Hydroxy-2,3-dihydrobenzofuran-5-yl)-6-[[(3R)-1-(2-hydroxyethyl)-3-piperidyl]amino]-4-methyl-1,2,4-triazin-5-one] | 4.8 | 4.7 | > 10 | 8.6 | 4.7
Cn1c(-c2ccc3c(c2O)CCC3)nnc(N[C@@H]2CCCN(CCO)C2)c1=O [Example 2, 6-[[(3R)-1-(2-Hydroxyethyl)-3-piperidyl]amino]-3-(4-hydroxyindan-5-yl)-4-methyl-1,2,4-triazin-5-one] | 4.8 | 19 | > 10 | 10 | 17
CCN1CCC[C@@H](Nc2nnc(-c3ccc4c(c3O)CCO4)n(C)c2=O)C1 [RE-A, 6-[[(3R)-1-Ethyl-3-piperidyl]amino]-3-(4-hydroxy-2,3-dihydrobenzofuran-5-yl)-4-methyl-1,2,4-triazin-5-one, reference compound] | 1.2 | 25 | – | 2 | 23.2
